Laboratory results reported in ChEMBL document CHEMBL1201862, “PubChem BioAssay data set” (2004).
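Step 1: Grow cells in 96-well plates. Step 2: Expose to compound for 48 hours at 5 concentrations. Step 3: Interpolate endpoints linearly; if unreached, use highest concentration. The concentration for 50% growth inhibition is given as GI50.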 Active and inactive are the calls of the source. No stated cut-off is given here; in the data, active = GI50 up to about 1.1 µM and inactive = higher.

Columns and labels:
Assay in all cases: NCI tumour cell line growth inhibition, 48 h
HL-60 = tested on: HL-60
ACHN = tested on: ACHN
OVCAR-4 = tested on: OVCAR-4
SF-268 = tested on: SF-268
SN12C = tested on: SN12C
SR = tested on: SR
HCC 2998 = tested on: HCC 2998
SK-OV-3 = tested on: SK-OV-3
RXF 393 = tested on: RXF 393
HOP-92 = tested on: HOP-92
CAKI-1 = tested on: CAKI-1
SNB-75 = tested on: SNB-75
TK-10 = tested on: TK-10
PC-3 = tested on: PC-3
OVCAR-3 = tested on: OVCAR-3
SW-620 = tested on: SW-620
MOLT-4 = tested on: MOLT-4
HOP-62 = tested on: HOP-62
SF-295 = tested on: SF-295
NCI-H226 = tested on: NCI-H226

SMILES | GI50 (HL-60) | GI50 (ACHN) | GI50 (OVCAR-4) | GI50 (SF-268) | GI50 (SN12C) | GI50 (SR) | GI50 (HCC 2998) | GI50 (SK-OV-3) | GI50 (RXF 393) | GI50 (HOP-92) | GI50 (CAKI-1) | GI50 (SNB-75) | GI50 (TK-10) | GI50 (PC-3) | GI50 (OVCAR-3) | GI50 (SW-620) | GI50 (MOLT-4) | GI50 (HOP-62) | GI50 (SF-295) | GI50 (NCI-H226)
Cc1cc2nc(N3C(=O)/C(=C/c4ccc(Cl)cc4)N=C3c3ccccc3)sc2cc1C | 21.6 µM (inactive) | 37.7 µM (inactive) | 20 µM (inactive) | 30 µM (inactive) | 24 µM (inactive) | 46.5 µM (inactive) | 24.2 µM (inactive) | 46.2 µM (inactive) | 14.6 µM (inactive) | 8.55 µM (inactive) | 26.4 µM (inactive) | 22.3 µM (inactive) | 39.3 µM (inactive) | 26.5 µM (inactive) | 15.7 µM (inactive) | 27.6 µM (inactive) | 53.8 µM (inactive) | 28.9 µM (inactive) | 31.2 µM (inactive) | 
CC1=C(C#N)C(C#N)(C#N)C(NN(C)C)C1 (stereo not given) | 3.59 µM (inactive) | 13.3 µM (inactive) | 30.7 µM (inactive) | 21.7 µM (inactive) | 14.1 µM (inactive) | 25.4 µM (inactive) | 17.2 µM (inactive) | > 100 µM (inactive) | 13 µM (inactive) | 15.1 µM (inactive) | 1.71 µM (inactive) | 21.4 µM (inactive) | 17 µM (inactive) | 20.4 µM (inactive) |  | 17.3 µM (inactive) | 18.5 µM (inactive) | 16.7 µM (inactive) | 24.5 µM (inactive) | 
O=C(CC1(O)C(=O)Nc2c(Cl)cc(Cl)cc21)c1cccc([N+](=O)[O-])c1 (stereo not given) |  | 23 µM (inactive) | 14.4 µM (inactive) | 44.4 µM (inactive) | 24.7 µM (inactive) | 51.9 µM (inactive) | > 45.2 µM (inactive) | 38.6 µM (inactive) | 28.6 µM (inactive) | 23.2 µM (inactive) | 32.6 µM (inactive) | 15.2 µM (inactive) | > 55.8 µM (inactive) | 32.1 µM (inactive) | 25 µM (inactive) | 20.1 µM (inactive) | 19.8 µM (inactive) | 50.6 µM (inactive) | 31 µM (inactive) | 31.6 µM (inactive)
COCC12CCC(OC)C34C5CC6(O)C(OC)C=C(C5C6OC(=O)c5ccccc5)C(C(OC)C13)C4N(C)C2 (stereo not given) | > 100 µM (inactive) | > 100 µM (inactive) | > 100 µM (inactive) | > 100 µM (inactive) | > 100 µM (inactive) | > 100 µM (inactive) | > 100 µM (inactive) | > 100 µM (inactive) | > 100 µM (inactive) | > 100 µM (inactive) | > 100 µM (inactive) | 32.1 µM (inactive) | > 100 µM (inactive) | > 100 µM (inactive) | > 100 µM (inactive) | > 100 µM (inactive) |  | > 100 µM (inactive) | > 100 µM (inactive) | 
COc1cccc(C23CCCC(C2)NCC3Br)c1OC (stereo not given) |  | 21 µM (inactive) | 35 µM (inactive) | 23 µM (inactive) | 31 µM (inactive) | 31.3 µM (inactive) |  | > 100 µM (inactive) | 92.3 µM (inactive) | 27.9 µM (inactive) | 41.6 µM (inactive) | 28.1 µM (inactive) | 36.9 µM (inactive) | 30.5 µM (inactive) | 34.5 µM (inactive) | 35.6 µM (inactive) | 45 µM (inactive) | 38 µM (inactive) | 38 µM (inactive) | 0.154 µM (active)
CC1CCc2sc3nc4n(c(=O)c3c2C1)CC(C)S4 (stereo not given) |  | 24.9 µM (inactive) | 25.5 µM (inactive) | 33.6 µM (inactive) | 21.5 µM (inactive) | 26.2 µM (inactive) | 19.7 µM (inactive) | 29.7 µM (inactive) | 15.4 µM (inactive) | 26.1 µM (inactive) | 36.9 µM (inactive) | 21.5 µM (inactive) | 25.1 µM (inactive) | 22.5 µM (inactive) | 7.6 µM (inactive) | 43.9 µM (inactive) |  | 32.7 µM (inactive) | 14.3 µM (inactive) | 21.8 µM (inactive)
